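Where inhibition never reached the appropriate level, the endpoint shown equals the highest concentration tested. Otherwise, values were interpolated linearly from a five-concentration, 48-hour dose response in 96-well plates. GI50 is the concentration that inhibits growth by half.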 Calls of active or inactive are those of the source. Rule as the data show it: active = GI50 up to about 1.1 µM and inactive = higher.
Tests used:
Experiment in all cases: DTP human tumour cell line panel, 48 h
XF498 = system: XF498
DLD-1 = system: DLD-1
A498 = system: A498
UO-31 = system: UO-31
SF-268 = system: SF-268
HCT-116 = system: HCT-116
KM-20L2 = system: KM-20L2
K562 = system: K562
A549 = system: A549
SK-OV-3 = system: SK-OV-3
SK-MEL-2 = system: SK-MEL-2
HCC 2998 = system: HCC 2998
SF-539 = system: SF-539
786-0 = system: 786-0
UACC-62 = system: UACC-62
EKVX = system: EKVX
HCT-15 = system: HCT-15
NCI-H226 = system: NCI-H226
NCI-H23 = system: NCI-H23
RPMI-8226 = system: RPMI-8226
OVCAR-4 = system: OVCAR-4
SW-620 = system: SW-620
SF-295 = system: SF-295
SN12C = system: SN12C
KM12 = system: KM12
HL-60 = system: HL-60
SK-MEL-5 = system: SK-MEL-5
LOX IMVI = system: LOX IMVI
ACHN = system: ACHN
HOP-62 = system: HOP-62
NCI-H522 = system: NCI-H522
CCRF-CEM = system: CCRF-CEM
OVCAR-5 = system: OVCAR-5
OVCAR-8 = system: OVCAR-8
M14 = system: M14
RXF 631 = system: RXF 631
OVCAR-3 = system: OVCAR-3
LXFL 529 = system: LXFL 529
U-251 = system: U-251
HT-29 = system: HT-29
IGROV-1 = system: IGROV-1
NCI-H460 = system: NCI-H460
TK-10 = system: TK-10
DMS-273 = system: DMS-273
SNB-19 = system: SNB-19
MOLT-4 = system: MOLT-4
COLO 205 = system: COLO 205
UACC-257 = system: UACC-257
CAKI-1 = system: CAKI-1
SNB-75 = system: SNB-75
Malme-3M = system: Malme-3M
DMS-114 = system: DMS-114
SK-MEL-28 = system: SK-MEL-28
SR = system: SR
M19-MEL = system: M19-MEL
SNB-78 = system: SNB-78
RXF 393 = system: RXF 393

COc1ccc(/N=N/C(C(=O)c2ccccc2)C(=O)c2ccccc2)cc1
GI50 (XF498): 18.2 µM (inactive) | GI50 (DLD-1): 23.9 µM (inactive) | GI50 (A498): 35.7 µM (inactive) | GI50 (UO-31): 16.9 µM (inactive) | GI50 (SF-268): 23.8 µM (inactive) | GI50 (HCT-116): 13.6 µM (inactive) | GI50 (KM-20L2): 27.2 µM (inactive) | GI50 (K562): 19.1 µM (inactive) | GI50 (A549): 21.3 µM (inactive) | GI50 (SK-OV-3): 45.9 µM (inactive) | GI50 (SK-MEL-2): 21.9 µM (inactive) | GI50 (HCC 2998): 44.7 µM (inactive) | GI50 (SF-539): 25.4 µM (inactive) | GI50 (786-0): 19.9 µM (inactive) | GI50 (UACC-62): 16 µM (inactive) | GI50 (EKVX): 21.3 µM (inactive) | GI50 (HCT-15): 15.1 µM | GI50 (NCI-H226): 8.67 µM (inactive) | GI50 (NCI-H23): 18.3 µM (inactive) | GI50 (RPMI-8226): 13.4 µM (inactive) | GI50 (OVCAR-4): 30.8 µM (inactive) | GI50 (SW-620): 19.3 µM (inactive) | GI50 (SF-295): 21.3 µM (inactive) | GI50 (SN12C): 21 µM (inactive) | GI50 (KM12): 27 µM (inactive) | GI50 (HL-60): 10.4 µM (inactive) | GI50 (SK-MEL-5): 14.1 µM (inactive) | GI50 (LOX IMVI): 17.8 µM (inactive) | GI50 (ACHN): 24.7 µM (inactive) | GI50 (HOP-62): 23.3 µM (inactive) | GI50 (NCI-H522): 16.2 µM (inactive) | GI50 (CCRF-CEM): 8 µM (inactive) | GI50 (OVCAR-5): 33.8 µM (inactive) | GI50 (OVCAR-8): 22.4 µM (inactive) | GI50 (M14): 15.3 µM (inactive) | GI50 (RXF 631): 31.4 µM (inactive) | GI50 (OVCAR-3): 17.2 µM (inactive) | GI50 (LXFL 529): 24.8 µM (inactive) | GI50 (U-251): 15.7 µM (inactive) | GI50 (HT-29): 23 µM (inactive) | GI50 (IGROV-1): 34.7 µM (inactive) | GI50 (NCI-H460): 18.6 µM (inactive) | GI50 (TK-10): 52 µM (inactive) | GI50 (DMS-273): 16.1 µM (inactive) | GI50 (SNB-19): 17.7 µM (inactive) | GI50 (MOLT-4): 14.7 µM (inactive) | GI50 (COLO 205): 42.1 µM (inactive) | GI50 (UACC-257): 24.5 µM (inactive) | GI50 (CAKI-1): 32.5 µM (inactive) | GI50 (SNB-75): 20.6 µM (inactive) | GI50 (Malme-3M): 24.9 µM (inactive) | GI50 (DMS-114): 19.4 µM (inactive) | GI50 (SK-MEL-28): 26.4 µM (inactive)

CCOC(=N)CC(=O)Nc1cccc(C)c1C
GI50 (XF498): > 100 µM (inactive) | GI50 (DLD-1): > 100 µM (inactive) | GI50 (A498): > 100 µM (inactive) | GI50 (UO-31): > 100 µM (inactive) | GI50 (SF-268): > 100 µM (inactive) | GI50 (HCT-116): > 100 µM (inactive) | GI50 (KM-20L2): > 100 µM (inactive) | GI50 (K562): > 10 µM (inactive) | GI50 (A549): > 100 µM (inactive) | GI50 (SK-OV-3): > 100 µM (inactive) | GI50 (SK-MEL-2): > 100 µM (inactive) | GI50 (HCC 2998): > 100 µM (inactive) | GI50 (SR): > 100 µM (inactive) | GI50 (SF-539): > 100 µM (inactive) | GI50 (786-0): > 100 µM (inactive) | GI50 (UACC-62): > 100 µM (inactive) | GI50 (EKVX): > 100 µM (inactive) | GI50 (NCI-H226): > 100 µM (inactive) | GI50 (NCI-H23): > 100 µM (inactive) | GI50 (OVCAR-4): > 100 µM (inactive) | GI50 (SW-620): > 100 µM (inactive) | GI50 (SF-295): > 100 µM (inactive) | GI50 (SN12C): > 100 µM (inactive) | GI50 (KM12): > 100 µM (inactive) | GI50 (HL-60): > 100 µM (inactive) | GI50 (SK-MEL-5): > 100 µM (inactive) | GI50 (LOX IMVI): > 100 µM (inactive) | GI50 (ACHN): > 100 µM (inactive) | GI50 (M19-MEL): > 100 µM (inactive) | GI50 (SNB-78): 40.3 µM (inactive) | GI50 (HOP-62): > 100 µM (inactive) | GI50 (NCI-H522): > 100 µM (inactive) | GI50 (CCRF-CEM): > 100 µM (inactive) | GI50 (OVCAR-5): > 100 µM (inactive) | GI50 (OVCAR-8): > 100 µM (inactive) | GI50 (M14): > 100 µM (inactive) | GI50 (RXF 631): > 100 µM (inactive) | GI50 (OVCAR-3): > 100 µM (inactive) | GI50 (LXFL 529): > 100 µM (inactive) | GI50 (U-251): > 100 µM (inactive) | GI50 (HT-29): > 100 µM (inactive) | GI50 (IGROV-1): > 100 µM (inactive) | GI50 (NCI-H460): > 100 µM (inactive) | GI50 (TK-10): > 100 µM (inactive) | GI50 (DMS-273): > 100 µM (inactive) | GI50 (SNB-19): > 100 µM (inactive) | GI50 (MOLT-4): 2.77 µM (inactive) | GI50 (COLO 205): > 100 µM (inactive) | GI50 (UACC-257): > 100 µM (inactive) | GI50 (RXF 393): > 100 µM (inactive) | GI50 (CAKI-1): > 100 µM (inactive) | GI50 (SNB-75): > 100 µM (inactive) | GI50 (Malme-3M): > 100 µM (inactive) | GI50 (SK-MEL-28): > 100 µM (inactive)
